Laboratory results: article PMC10731806, “Characterization of an iPSC-based barrier model for blood-brain barrier investigations using the SBAD0201 stem cell line” (Fluids and Barriers of the CNS, 2023)
Blank lines part the entries; values can stand above or below the molecule they belong to.

Key:
GLUT1 = settings: cited from earlier work
GLUT-1 = molecular target: T1, GLUT-1 (Homo sapiens, UniProt P11166); experiment: Apical-to-basolateral transport of GLUT-1 substrates with and without GLUT-1 inhibitors; type: cell-based; settings: A-B, glucose-free HBSS, one hour; for effect on apparent permeability of 6-NBDG: 6-NBDG 100 µM; for effect on apparent permeability of [^3H]-glucose: [3H]-glucose 20 nM
T1 construct: endogenous in cells; host or cells: SBAD0201 hiPSC-derived brain capillary endothelial-like cells (BCECs)
T1 sequence (P11166 1-492): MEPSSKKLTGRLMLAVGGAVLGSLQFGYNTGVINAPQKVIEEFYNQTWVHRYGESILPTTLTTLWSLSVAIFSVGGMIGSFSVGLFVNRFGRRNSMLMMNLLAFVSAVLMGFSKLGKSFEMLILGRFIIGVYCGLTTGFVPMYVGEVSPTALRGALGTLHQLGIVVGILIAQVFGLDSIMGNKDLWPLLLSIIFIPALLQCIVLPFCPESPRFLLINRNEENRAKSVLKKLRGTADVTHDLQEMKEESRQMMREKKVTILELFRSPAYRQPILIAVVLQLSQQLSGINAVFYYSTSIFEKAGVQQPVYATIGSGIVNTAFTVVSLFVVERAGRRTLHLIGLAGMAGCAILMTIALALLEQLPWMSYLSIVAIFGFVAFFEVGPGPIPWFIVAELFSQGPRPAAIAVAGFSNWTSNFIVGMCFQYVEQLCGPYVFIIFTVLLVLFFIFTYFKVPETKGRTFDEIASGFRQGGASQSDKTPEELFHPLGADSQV
Protocol: (§1) HBSS without glucose was used for transport assays involving [^3H]-glucose and 6-NBDG, whereas HBSS^+ was used for [^3H]-L-leucine. […] The function of GLUT-1 and LAT-1 were evaluated by co-application of the GLUT-1 inhibitors BAY876 (1 and 10 μM) and phloretin (100 μM) and the LAT-1 inhibitors JPH203 (10 μM) and BCH (100 μM). The inhibitors were added to the transport buffer in both chambers 15 min before the addition of the substrates.

LAT-1 = molecular target: T2, LAT-1 (Homo sapiens, UniProt Q01650); experiment: Apical-to-basolateral transport of [3H]-L-leucine with and without LAT-1 inhibitors; type: cell-based; settings: [3H]-L-leucine 9.3 nM, A-B, HBSS+, one hour
T2 construct: endogenous in cells; host or cells: SBAD0201 hiPSC-derived brain capillary endothelial-like cells (BCECs)
T2 sequence (Q01650 whole entry): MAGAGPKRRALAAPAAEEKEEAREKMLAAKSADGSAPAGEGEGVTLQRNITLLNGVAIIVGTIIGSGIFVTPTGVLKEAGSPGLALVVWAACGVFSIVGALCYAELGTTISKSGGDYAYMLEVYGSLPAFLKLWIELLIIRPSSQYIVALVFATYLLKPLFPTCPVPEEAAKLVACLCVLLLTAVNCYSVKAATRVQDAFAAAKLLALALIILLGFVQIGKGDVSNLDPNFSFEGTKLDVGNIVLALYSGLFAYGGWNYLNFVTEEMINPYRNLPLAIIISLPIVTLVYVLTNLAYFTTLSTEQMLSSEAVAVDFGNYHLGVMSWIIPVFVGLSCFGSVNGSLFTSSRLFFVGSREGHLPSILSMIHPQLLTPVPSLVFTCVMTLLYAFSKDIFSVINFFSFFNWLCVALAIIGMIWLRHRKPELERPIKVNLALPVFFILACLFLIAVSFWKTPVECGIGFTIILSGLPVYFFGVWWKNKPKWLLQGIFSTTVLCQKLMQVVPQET
T2 sequence (P08195 102-630 partner): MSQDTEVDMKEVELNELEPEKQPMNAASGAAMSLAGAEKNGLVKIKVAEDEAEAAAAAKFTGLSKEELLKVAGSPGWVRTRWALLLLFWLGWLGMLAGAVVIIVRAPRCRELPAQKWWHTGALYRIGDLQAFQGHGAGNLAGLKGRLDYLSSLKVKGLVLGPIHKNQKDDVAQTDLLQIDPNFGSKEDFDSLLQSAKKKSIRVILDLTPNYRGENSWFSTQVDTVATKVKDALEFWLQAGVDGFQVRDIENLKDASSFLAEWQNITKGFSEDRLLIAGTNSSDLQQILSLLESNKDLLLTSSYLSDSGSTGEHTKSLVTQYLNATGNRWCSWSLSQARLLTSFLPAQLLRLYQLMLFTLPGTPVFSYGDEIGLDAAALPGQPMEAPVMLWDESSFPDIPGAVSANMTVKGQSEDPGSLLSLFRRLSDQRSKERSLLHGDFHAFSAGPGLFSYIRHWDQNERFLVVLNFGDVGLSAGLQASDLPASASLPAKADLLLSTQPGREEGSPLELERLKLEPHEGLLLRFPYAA
Protocol: as §1

P-gp = experiment: Bidirectional transport and uptake of P-gp substrates with and without zosuquidar; settings: for vectorial transport (bidirectional): EC-/- medium

Compound: NC1(C(=O)O)CC2CCC1C2 (centres unmarked) [BCH]
effect on transport of [3H]-L-leucine (LAT-1; BCH 100 µM): significantly decreased

Compound: C[C@H]1O[C@@H](O[C@H]2[C@@H](O)C[C@H](O[C@H]3[C@@H](O)C[C@H](O[C@H]4CC[C@@]5(C)[C@H](CC[C@@H]6[C@@H]5C[C@@H](O)[C@]5(C)[C@@H](C7=CC(=O)OC7)CC[C@]65O)C4)O[C@@H]3C)O[C@@H]2C)C[C@H](O)[C@@H]1O [[^3H]-digoxin, digoxin]
vectorial transport (bidirectional) (P-gp; [3H]-digoxin 38.2 nM, two hours): No vectorial transport

Compound: O=C(CCc1ccc(O)cc1)c1c(O)cc(O)cc1O [phloretin]
effect on apparent permeability of 6-NBDG (GLUT-1; 100 µM phloretin): sensitive to the addition
effect on apparent permeability of [^3H]-glucose (GLUT-1; 100 µM phloretin): sensitive to the addition

Compound: COC(=O)c1ccccc1-c1c2ccc(=N)cc-2oc2cc(N)ccc12 [rhodamine 123]
vectorial transport (bidirectional) (P-gp; rhodamine 123 5 µM, two hours): No vectorial transport

Compound: O[C@@H](COc1cccc2ncccc12)CN1CCN([C@@H]2c3ccccc3[C@@H]3[C@H](c4ccccc42)C3(F)F)CC1 [zosuquidar]
effect on transport of rhodamine 123 and [3H]-digoxin (P-gp; zosuquidar 0.4 µM, both chambers, two hours): neither the transport nor the uptake of the substrates was affected
effect on uptake of rhodamine 123 and [3H]-digoxin (P-gp; zosuquidar 0.4 µM, uptake probed after the transport study): neither the transport nor the uptake of the substrates was affected

Continued, in another order:

effect on apparent permeability of 6-NBDG (GLUT-1; 10 µM BAY876): sensitive to the addition
effect on apparent permeability of [^3H]-glucose (GLUT-1; 10 µM BAY876): sensitive to the addition
Compound: Cc1c(NC(=O)c2cc(C(N)=O)nc3cc(F)ccc23)c(C(F)(F)F)nn1Cc1ccc(C#N)cc1 [BAY876]
selectivity for GLUT1 relative to GLUT2, GLUT3, GLUT4 (GLUT1): at least 130 fold

effect on transport of [3H]-L-leucine (LAT-1; JPH203 10 µM): significantly decreased
Compound: Nc1cc(COc2c(Cl)cc(C[C@H](N)C(=O)O)cc2Cl)c2oc(-c3ccccc3)nc2c1 [JPH203]
